From patent US20240360177A1, “PEPTIDES WITH ANTIMICROBIAL ACTIVITIES” (priority 2021, published 2024) come the findings set out here.

In brackets after ≈: the same amount, converted by molar mass. Read-outs that look alike come from different tables or passages of the source. Non-standard residues stand in square brackets, D forms with d. Residues, ends and D or L forms follow the SMILES beside them. βAla = NCCC(=O)O

Series [1] is described as follows: Acute toxicity in CD-1 mice. Conditions: both sexes, mouse, in vivo. As to the method: Acute toxicity and subacute toxicity of ACPs were tested in CD-1 mice. In the acute toxicity study, groups of CD-1 male or female mice were administered single intravenous or intraperitoneal escalating doses (n=2-3 per dose) of the peptides dissolved in normal saline for injection or in phosphate buffered saline. The intravenous dose was administered via tail vein with a slow push over 15-20 seconds. Doses were escalated based on tolerability.

A further series concerns C. albicans. Conditions: 24 h.
The next series has as its system C. neoformans. Conditions: 72 h.
The subject of a further series is Fusarium spp. Particulars: 48 h.
A further series relates to C. krusei. Particulars: 24 h.
The nature of another series: in vitro. Particulars: human, EC50 cytotoxicity in HepG2, intracellular ATP assay.
The subject of a further series is Scedosporium spp. Conditions: 72 h.
The next series deals with C. glabrata. Conditions: 24 h.
In a further series the test system is C. parapsilosis. Particulars: 24 h.
The next series deals with C. dubliniensis. Conditions: 24 h.
The next series relates to C. auris. Conditions: 24 h.
The subject of another series is C. gattii. Particulars: 72 h.
The next series deals with C. tropicalis. Conditions: 24 h.
The subject of series [2] is Pseudomonas aeruginosa ATCC 27853. The format is cell-based.
The subject of series [3] is Escherichia coli ATCC 25922. The format is cell-based.
The subject of series [4] is Staphylococcus aureus ATCC 29213. Type of series: cell-based.

On to `N=C(N)NCCC[C@@H](N)C(=O)N[C@H](CCCNC(=N)N)C(=O)N[C@H](CCCNC(=N)N)C(=O)NCCC(=O)N[C@H](CCCNC(=N)N)C(=O)N[C@H](CCCNC(=N)N)C(=O)N[C@H](CCCNC(=N)N)C(=O)NCCC(=O)N[C@H](CCCNC(=N)N)C(=O)N[C@H](CCCNC(=N)N)C(=O)N[C@H](CCCNC(=N)N)C(=O)N[C@H](CCCNC(=N)N)C(=O)NCCC(=O)N[C@H](CCCNC(=N)N)C(=O)N[C@H](CCCNC(=N)N)C(=O)N[C@H](CCCNC(=N)N)C(=O)N[C@H](CCCNC(=N)N)C(N)=O` [SEQ ID NO: 14, rrr-(Apr)-rrr-(Apr)-rrrr-(Apr)-rrrr-NH2] (H-[dR][dR][dR][βAla][dR][dR][dR][βAla][dR][dR][dR][dR][βAla][dR][dR][dR][dR]-NH2), for which the MTD in [1] (single IP dose, read-out: Tolerated single intraperitoneal dose) lay within 10 to 15 mg/kg. For the same molecule, the MTD in series [1] (single IV dose via tail vein, read-out: Tolerated single intravenous dose) is 5 to 7.5 mg/kg. Further, the “MIC C. albicans” value with C. albicans was found to be 1 µg/mL (≈ 0.414 µM). Besides, the “MIC C. neoformans” value against C. neoformans is 0.5 µg/mL (≈ 0.207 µM). The “MIC Range Fusarium spp.” value against Fusarium spp. was in the range of 0.12 to 0.25 µg/mL. In the series with C. krusei, the “MIC C. krusei” value was 0.5 µg/mL (≈ 0.207 µM). Further, the EC50 (usually the concentration that produces a half-maximal response) in the series “in vitro” is > 300 µg/mL. In the series on Candida spp., the “MIC50 Candida species” value was determined as 0.5 µg/mL (≈ 0.207 µM) and the “MIC90 Candida species” value came to 2 µg/mL (≈ 0.828 µM). In addition, in the series with Scedosporium spp., the “MIC Range Scedosporium spp.” value is 0.25 µg/mL (≈ 0.103 µM). In addition, the “MIC C. glabrata” value in the series with C. glabrata worked out at 0.5 µg/mL (≈ 0.207 µM). The “MIC C. parapsilosis” value against C. parapsilosis was found to be 0.12 µg/mL (≈ 0.0497 µM). Moreover, the “MIC C. dubliniensis” value in the series with C. dubliniensis was determined as 0.5 µg/mL (≈ 0.207 µM). In the series with C. auris, the “MIC C. auris” value was found to be 0.5 µg/mL (≈ 0.207 µM). Also, the “MIC C. gattii” value in the series with C. gattii was determined as 0.25 µg/mL (≈ 0.103 µM). The “MIC C. tropicalis” value in the series on C. tropicalis amounted to 0.25 µg/mL (≈ 0.103 µM).
Consider `N=C(N)NCCC[C@@H](N)C(=O)N[C@@H](CCCNC(=N)N)C(=O)N[C@H](CCCNC(=N)N)C(=O)NCCC(=O)N[C@H](CCCNC(=N)N)C(=O)N[C@@H](CCCNC(=N)N)C(=O)N[C@H](CCCNC(=N)N)C(=O)NCCC(=O)N[C@H](CCCNC(=N)N)C(=O)N[C@@H](CCCNC(=N)N)C(=O)N[C@H](CCCNC(=N)N)C(=O)N[C@@H](CCCNC(=N)N)C(=O)NCCC(=O)O` [SEQ ID NO: 17, rRr-(Apr)-rRr-(Apr)-rRrR-(Apr)] (H-[dR]R[dR][βAla][dR]R[dR][βAla][dR]R[dR]R[βAla]-OH), for which, in [2], the “MIC Pseudomonas aeruginosa” value was >64 µg/mL. The “MIC C. albicans” value with C. albicans came to 4 µg/mL (≈ 2.23 µM). For the same molecule, the “MIC C. neoformans” value in the series on C. neoformans turned out to be 64 µg/mL (≈ 35.7 µM). The “MIC Range Fusarium spp.” value against Fusarium spp. lay within 16 to 64 µg/mL. Also, the “MIC C. krusei” value in the series with C. krusei is 1 µg/mL (≈ 0.558 µM). In addition, the EC50 in the series “in vitro” is > 300 µg/mL. For the same molecule, the “MIC Escherichia coli” value in series [3] is >64 µg/mL. In addition, in the series with C. glabrata, the “MIC C. glabrata” value was >64 µg/mL. Besides, the “MIC C. parapsilosis” value in the series with C. parapsilosis came to 2 µg/mL (≈ 1.12 µM). In the series on C. dubliniensis, the “MIC C. dubliniensis” value stood at 8 µg/mL (≈ 4.46 µM). For the same molecule, the “MIC C. auris” value against C. auris was >64 µg/mL. Also, the “MIC Staphylococcus aureus” value in [4] was >64 µg/mL. In addition, the “MIC C. gattii” value with C. gattii was determined as 8 µg/mL (≈ 4.46 µM). Further, the “MIC C. tropicalis” value with C. tropicalis worked out at 4 µg/mL (≈ 2.23 µM).
